Series [1] is described as follows: AUC in rat at 10 mg/kg, po administered as single dose. The class given is ADME, organism-based. The conditions noted are these: in vivo.
Series [2] is described as follows: Cytotoxicity against human TZM-bl cells after 48 hrs by MTT assay. Format: cell-based. A general note: Formazan colour is commonly taken as a measure of viable cells.
The nature of series [3]: Cmax in Sprague-Dawley rat at 10 mg/kg, po by LC-MS/MS analysis. Format: ADME, organism-based. The arrangement: dose 10 mg/kg, route oral. The conditions noted are these: in vivo.
The next series concerns Rattus norvegicus. The experiment in a line: Tmax in Sprague-Dawley rat at 10 mg/kg, po by LC-MS/MS analysis. The class given is ADME, organism-based. The conditions noted are these: in vivo.
Series [4] has as its system Hepatocyte. The experiment in a line: Metabolic stability in human hepatocytes assessed as compound remaining by UPLC/Q-TOF mass spectrometric analysis. The class given is ADME, cell-based.
Series [5] concerns Hepatocyte. In words: Metabolic stability in dog hepatocytes assessed as compound remaining by UPLC/Q-TOF mass spectrometric analysis. The class given is ADME, cell-based, Canis lupus familiaris.
Series [6] relates to Hepatocyte. In words: Metabolic stability in rat hepatocytes assessed as compound remaining by UPLC/Q-TOF mass spectrometric analysis. The class given is ADME, cell-based.
The nature of series [7]: Cmax in dog at 2 mg/kg, po by LC-MS/MS analysis. The arrangement: dose 2 mg/kg, route oral. Format: ADME, organism-based, Canis lupus familiaris. The conditions noted are these: in vivo.
Series [8] in a line: Tmax in dog at 2 mg/kg, po by LC-MS/MS analysis. Format: ADME, organism-based, Canis lupus familiaris. The conditions noted are these: in vivo.
Series [9] concerns Canis familiaris. The experiment in a line: Clearance in dog at 0.5 mg/kg, iv by LC-MS/MS analysis. Format: ADME, organism-based, Canis lupus familiaris. The conditions noted are these: in vivo.
Series [10] deals with Canis familiaris. In words: AUC (0 to infinity) in dog at 2 mg/kg, po by LC-MS/MS analysis. The class given is ADME, organism-based, Canis lupus familiaris. The arrangement: dose 2 mg/kg, route oral, time infinity. The conditions noted are these: in vivo.
The test system of series [11] is Canis familiaris. In words: Oral bioavailability in dog at 2 mg/kg by LC-MS/MS analysis. The class given is ADME, organism-based, Canis lupus familiaris. The conditions noted are these: in vivo.

The term AUC denotes the area under the concentration-time curve, a measure of exposure. Read a high AUC as high exposure. In general, CC50 refers to the concentration giving 50% cytotoxicity. A high value points to lower toxicity to the cells. The term Cmax denotes the peak of the concentration-time curve. For orientation: Tmax means the time at which the peak concentration occurs. The clearance is a measure of how efficiently the substance is removed, as volume per time. Low readings indicate a low capacity for elimination, high ones a high capacity for elimination.

With `Cc1nnc(C(C)C)n1[C@@H]1C[C@H]2CC[C@@H](C1)N2CC[C@H](NC(=O)C1CCC(F)(F)CC1)c1ccccc1` [MARAVIROC], the exposure (AUC) in series [1] came out at 12.4 ng·h/mL; in the series on Canis familiaris [10] it was 583 ng·h/mL. This compound also showed a CC50 at 48 h in [2] of over 200 µM. The Cmax in series [3] came to 5.5 ng/mL; in [7] it was 256 ng/mL. The Tmax with Rattus norvegicus stood at 120 min; in [8], 45 min. For the same compound, the results for the Stability in the series with Hepatocyte [4], in the series on Hepatocyte [5] and with Hepatocyte [6] were 33%, 45% and 79%, respectively. In addition, the clearance in the series on Canis familiaris [9] stood at 21 mL/min/kg. Further, the F with Canis familiaris [11] came to 40%.

Source of the values: ChEMBL document CHEMBL4229569, “Structure-Based Design of 1-Heteroaryl-1,3-propanediamine Derivatives as a Novel Series of CC-Chemokine Receptor 5 Antagonists” (J Med Chem, 2018).
